According to patent US20230000813A1, “COMPOUND FOR THE TREATMENT OF BOVINE OR SWINE RESPIRATORY DISEASE” (Intervet Inc., priority 2016, published 2023):
In brackets after ≈: the same amount, converted by molar mass.

Key:
Test in all cases: MIC, broth-microdilution (CLSI VET01-A4)
Format in all cases: cell-based
[1] = system: Mannheimia haemolytica MH 10720 (154, BRD field isolate); details: Mannheimia haemolytica MH 10720; for MIC: read-out: MIC MH 10720
Method in brief: (§1)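 Visual no-turbidity endpoint over twofold compound dilutions in microdilution trays, interpreted according to CLSI VET01-S3.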

[2] = system: Mannheimia haemolytica MH 12587 (1071, BRD field isolate, macrolide-resistance: erm+, E+); details: Mannheimia haemolytica MH 12587, macrolide-resistant
Method in brief: as §1

[3] = system: Mannheimia haemolytica MH 6357 (M7/2, reference strain, cattle infection strain); details: Mannheimia haemolytica MH 6357; read-out: MIC MH 6357
Method in brief: as §1

[4] = system: Mannheimia haemolytica MH 6374 (ATCC 33396, reference strain); details: Mannheimia haemolytica MH 6374; read-out: MIC MH 6374
Method in brief: as §1

[5] = system: Pasteurella multocida PM 10775 (080130003051, BRD field isolate); details: Pasteurella multocida PM 10775
Method in brief: as §1

[6] = system: Pasteurella multocida PM 12080 (IV102277-0093, BRD field isolate); details: Pasteurella multocida PM 12080; for MIC: read-out: MIC PM 12080
Method in brief: as §1

[7] = system: Pasteurella multocida PM 6267 (P 2225 (L386), reference strain, mouse infection strain); details: Pasteurella multocida PM 6267; for MIC: read-out: MIC PM 6267
Method in brief: as §1

[8] = system: Pasteurella multocida PM 6391 (ATCC 43137, reference strain); details: Pasteurella multocida PM 6391; for MIC: read-out: MIC PM 6391
Method in brief: as §1

[9] = system: Mannheimia haemolytica MH 13065 (XB0446-6003.9, BRD field isolate)
Method in brief: (§2)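 MIC read by eye as lowest compound concentration without visible growth (no turbidity), interpreted per CLSI VET01-S3. Doubling-dilution broth-microdilution trays, run according to CLSI VET01-A4.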

[10] = system: Mannheimia haemolytica MH 13093 (XB0472-6014.1, BRD field isolate)
Method in brief: as §2

Row | SMILES | MIC MH 10720 [1] | MIC MH 12587 [2] | MIC [3] | MIC [4] | MIC PM 10775 [5] | MIC PM 12080 [6] | MIC PM 6267 [7] | MIC PM 6391 [8] | MIC [9] | MIC [10] | MIC [6] | MIC [8] | MIC [1] | MIC [7] | MIC ([5]; read-out: MIC PM 10775)
1 | CC(C)(C(NC(=O)c1ccc(C#Cc2ccc(CNCc3ccncc3)cc2)cc1)C(=O)NO)S(C)(=O)=O (stereo not shown) [C. 607] | <=0.1 μM | 0.8 µM (≈ 0.428 µg/mL) | 0.4 µM (≈ 0.214 µg/mL) | 0.4 µM (≈ 0.214 µg/mL) | <=0.1 μM | <=0.1 μM | <=0.1 μM | <=0.1 μM | 0.4 µM (≈ 0.214 µg/mL) | 0.4 µM (≈ 0.214 µg/mL) | – | – | – | – | –
2 | CC(C)(N)C(NC(=O)c1ccc(C#Cc2ccc(CN3CC=CC3)s2)cc1)C(=O)NO (racemic) [Compound 649] | <=0.1 μM | 0.8 µM (≈ 0.351 µg/mL) | 0.8 µM (≈ 0.351 µg/mL) | 0.4 µM (≈ 0.175 µg/mL) | <=0.1 μM | – | <=0.1 μM | – | 0.4 µM (≈ 0.175 µg/mL) | 0.8 µM (≈ 0.351 µg/mL) | 0.2 µM (≈ 0.0877 µg/mL) | 0.2 µM (≈ 0.0877 µg/mL) | – | – | –
3 | CSC(C)(C)[C@H](NC(=O)c1ccc(C#Cc2ccc(CNCc3ccncc3)s2)cc1)C(=O)NO [Compound 740] | – | 1.6 µM (≈ 0.814 µg/mL) | 0.8 µM (≈ 0.407 µg/mL) | 0.8 µM (≈ 0.407 µg/mL) | <=0.1 μM | <=0.1 μM | – | – | 0.8 µM (≈ 0.407 µg/mL) | 0.8 µM (≈ 0.407 µg/mL) | – | 0.4 µM (≈ 0.203 µg/mL) | 0.2 µM (≈ 0.102 µg/mL) | 0.4 µM (≈ 0.203 µg/mL) | –
4 | CC(C)(N)C(NC(=O)c1ccc(C#Cc2ccc(CNCc3ccccc3)cc2)cc1)C(=O)NO (racemic) [Compound 321] | – | 1.6 µM (≈ 0.753 µg/mL) | 1.6 µM (≈ 0.753 µg/mL) | 0.8 µM (≈ 0.376 µg/mL) | <=0.1 μM | – | – | <=0.1 μM | 0.8 µM (≈ 0.376 µg/mL) | 1.6 µM (≈ 0.753 µg/mL) | 0.2 µM (≈ 0.0941 µg/mL) | – | 0.4 µM (≈ 0.188 µg/mL) | 0.4 µM (≈ 0.188 µg/mL) | –
5 | CC(C)([C@H](NC(=O)c1ccc(C#Cc2ccc(CNCc3nccs3)s2)cc1)C(=O)NO)S(C)(=O)=O [Compound 745] | <=0.1 μM | 0.4 µM (≈ 0.219 µg/mL) | 0.4 µM (≈ 0.219 µg/mL) | 0.2 µM (≈ 0.109 µg/mL) | <=0.1 μM | <=0.1 μM | <=0.1 μM | <=0.1 μM | 0.4 µM (≈ 0.219 µg/mL) | 0.4 µM (≈ 0.219 µg/mL) | – | – | – | – | –
6 | CC(C)([C@@H](NC(=O)c1ccc(C#Cc2ccc(CNCc3nccs3)cc2)cc1)C(=O)NO)S(C)(=O)=O [C. 620] | <=0.1 μM | 0.4 µM (≈ 0.216 µg/mL) | 0.2 µM (≈ 0.108 µg/mL) | 0.2 µM (≈ 0.108 µg/mL) | <=0.1 μM | <=0.1 μM | <=0.1 μM | <=0.1 μM | 0.2 µM (≈ 0.108 µg/mL) | 0.2 µM (≈ 0.108 µg/mL) | – | – | – | – | –
7 | CC(C)(N)C(NC(=O)c1ccc(C#Cc2ccc(CNCC(F)(F)F)s2)cc1)C(=O)NO (racemic) [Compound 648] | <=0.1 μM | 0.8 µM (≈ 0.375 µg/mL) | 0.8 µM (≈ 0.375 µg/mL) | 0.4 µM (≈ 0.187 µg/mL) | <=0.1 μM | – | <=0.1 μM | – | 0.4 µM (≈ 0.187 µg/mL) | 1.6 µM (≈ 0.75 µg/mL) | 0.2 µM (≈ 0.0937 µg/mL) | 0.4 µM (≈ 0.187 µg/mL) | – | – | –
8 | C#CCNCc1ccc(C#Cc2ccc(C(=O)NC(C(=O)NO)C(C)(C)N)cc2)s1 (racemic) [Compound 633] | <=0.1 μM | 0.8 µM (≈ 0.34 µg/mL) | 0.8 µM (≈ 0.34 µg/mL) | 0.4 µM (≈ 0.17 µg/mL) | <=0.1 μM | – | <=0.1 μM | – | 0.8 µM (≈ 0.34 µg/mL) | 0.8 µM (≈ 0.34 µg/mL) | 0.2 µM (≈ 0.0849 µg/mL) | 0.2 µM (≈ 0.0849 µg/mL) | – | – | –
9 | CC(C)([C@H](NC(=O)c1ccc(C#Cc2ccc(CNCC#N)cc2)cc1)C(=O)NO)S(C)(=O)=O [Compound 612] | <=0.1 μM | 1.6 µM (≈ 0.772 µg/mL) | 0.8 µM (≈ 0.386 µg/mL) | 0.4 µM (≈ 0.193 µg/mL) | <=0.1 μM | <=0.1 μM | <=0.1 μM | <=0.1 μM | 0.8 µM (≈ 0.386 µg/mL) | 0.8 µM (≈ 0.386 µg/mL) | – | – | – | – | –
10 | CC(C)([C@H](NC(=O)c1ccc(C#Cc2ccc(CNCc3ccnc(Cl)c3)cc2)cc1)C(=O)NO)S(C)(=O)=O [Compound 614] | <=0.1 μM | 0.8 µM (≈ 0.455 µg/mL) | 0.4 µM (≈ 0.228 µg/mL) | 0.4 µM (≈ 0.228 µg/mL) | <=0.1 μM | <=0.1 μM | <=0.1 μM | <=0.1 μM | 0.2 µM (≈ 0.114 µg/mL) | 0.4 µM (≈ 0.228 µg/mL) | – | – | – | – | –
11 | CC(C)C(NC(=O)c1ccc(C#Cc2ccc(CNCc3nccs3)cc2)cc1)C(=O)NO (stereo not shown) [Compound 341] | <=0.1 μM | 0.4 µM (≈ 0.185 µg/mL) | 0.2 µM (≈ 0.0925 µg/mL) | 0.4 µM (≈ 0.185 µg/mL) | <=0.1 μM | <=0.1 μM | <=0.1 μM | <=0.1 μM | 0.2 µM (≈ 0.0925 µg/mL) | 0.4 µM (≈ 0.185 µg/mL) | – | – | – | – | –
12 | CC(C)(O)C(NC(=O)c1ccc(C#Cc2ccc(CNCc3ccccc3)cc2)cc1)C(=O)NO (stereo not shown) [Compound 569] | <=0.1 μM | 0.8 µM (≈ 0.377 µg/mL) | 0.8 µM (≈ 0.377 µg/mL) | 0.4 µM (≈ 0.189 µg/mL) | <=0.1 μM | <=0.1 μM | <=0.1 μM | <=0.1 μM | 0.4 µM (≈ 0.189 µg/mL) | 0.4 µM (≈ 0.189 µg/mL) | – | – | – | – | –
13 | CC(C)(O)C(NC(=O)c1ccc(C#Cc2ccc(CNCc3ccccn3)cc2)cc1)C(=O)NO (stereo not shown) [Compound 576] | <=0.1 μM | 1.6 µM (≈ 0.756 µg/mL) | 0.8 µM (≈ 0.378 µg/mL) | 0.4 µM (≈ 0.189 µg/mL) | <=0.1 μM | <=0.1 μM | <=0.1 μM | <=0.1 μM | 0.8 µM (≈ 0.378 µg/mL) | 0.8 µM (≈ 0.378 µg/mL) | – | – | – | – | –
14 | C#CCNCc1ccc(C#Cc2ccc(C(=O)NC(C(=O)NO)C(C)(C)N)cc2)cn1 (racemic) [Compound 647] | – | 1.6 µM (≈ 0.671 µg/mL) | 1.6 µM (≈ 0.671 µg/mL) | 0.8 µM (≈ 0.336 µg/mL) | <=0.1 μM | – | <=0.1 μM | – | 0.8 µM (≈ 0.336 µg/mL) | 0.8 µM (≈ 0.336 µg/mL) | 0.4 µM (≈ 0.168 µg/mL) | 0.4 µM (≈ 0.168 µg/mL) | 0.4 µM (≈ 0.168 µg/mL) | – | –
15 | CSC(C)(C)[C@H](NC(=O)c1ccc(C#Cc2ccc(CNCc3nccs3)cc2)cc1)C(=O)NO [Compound 600] | – | 1.6 µM (≈ 0.814 µg/mL) | 0.8 µM (≈ 0.407 µg/mL) | 1.6 µM (≈ 0.814 µg/mL) | <=0.1 μM | <=0.1 μM | <=0.1 μM | – | 0.8 µM (≈ 0.407 µg/mL) | 0.8 µM (≈ 0.407 µg/mL) | – | 0.4 µM (≈ 0.203 µg/mL) | 0.2 µM (≈ 0.102 µg/mL) | – | –
16 | CC(C)(O)C(NC(=O)c1ccc(C#Cc2ccc(CNCc3ccnc(Cl)c3)cc2)cc1)C(=O)NO (stereo not shown) [Compound 575] | <=0.1 μM | 0.4 µM (≈ 0.203 µg/mL) | 0.4 µM (≈ 0.203 µg/mL) | 0.4 µM (≈ 0.203 µg/mL) | <=0.1 μM | <=0.1 μM | <=0.1 μM | <=0.1 μM | 0.2 µM (≈ 0.101 µg/mL) | 0.4 µM (≈ 0.203 µg/mL) | – | – | – | – | –
17 | CC(C)(C(NC(=O)c1ccc(C#Cc2ccc(CNCc3ccccn3)cc2)cc1)C(=O)NO)S(C)(=O)=O (stereo not shown) [C. 615] | <=0.1 μM | 1.6 µM (≈ 0.855 µg/mL) | 1.6 µM (≈ 0.855 µg/mL) | 0.4 µM (≈ 0.214 µg/mL) | <=0.1 μM | <=0.1 μM | <=0.1 μM | <=0.1 μM | 1.6 µM (≈ 0.855 µg/mL) | 0.8 µM (≈ 0.428 µg/mL) | – | – | – | – | –
18 | CC(C)(O)C(NC(=O)c1ccc(C#Cc2ccc(CNC3CC3)cc2)cc1)C(=O)NO (stereo not shown) [Compound 565] | <=0.1 μM | 1.6 µM (≈ 0.674 µg/mL) | 1.6 µM (≈ 0.674 µg/mL) | 0.4 µM (≈ 0.169 µg/mL) | <=0.1 μM | <=0.1 μM | <=0.1 μM | <=0.1 μM | 0.4 µM (≈ 0.169 µg/mL) | 0.8 µM (≈ 0.337 µg/mL) | – | – | – | – | –
19 | CSC(C)(C)[C@H](NC(=O)c1ccc(C#Cc2ccc(CNCc3ccnc(Cl)c3)cc2)cc1)C(=O)NO [Compound 594] | – | 1.6 µM (≈ 0.859 µg/mL) | 1.6 µM (≈ 0.859 µg/mL) | 1.6 µM (≈ 0.859 µg/mL) | – | – | – | – | 1.6 µM (≈ 0.859 µg/mL) | 1.6 µM (≈ 0.859 µg/mL) | 0.8 µM (≈ 0.43 µg/mL) | 0.8 µM (≈ 0.43 µg/mL) | 0.4 µM (≈ 0.215 µg/mL) | 0.4 µM (≈ 0.215 µg/mL) | 0.2 µM (≈ 0.107 µg/mL)
